Laboratory results reported in patent US20140045823A1 (Neurocrine Biosciences, Inc., priority 2012, published 2014).
pEC50: −log10 of the molar value.

Biological target: T1, human GPR119 (Homo sapiens, UniProt Q8TDV5)
T1 construct: expression vector for human GPR119 cDNA (Acc. No. NP_848566); expressed in transfected cells; Min-6/hGPR119
T1 sequence (Q8TDV5 1-335): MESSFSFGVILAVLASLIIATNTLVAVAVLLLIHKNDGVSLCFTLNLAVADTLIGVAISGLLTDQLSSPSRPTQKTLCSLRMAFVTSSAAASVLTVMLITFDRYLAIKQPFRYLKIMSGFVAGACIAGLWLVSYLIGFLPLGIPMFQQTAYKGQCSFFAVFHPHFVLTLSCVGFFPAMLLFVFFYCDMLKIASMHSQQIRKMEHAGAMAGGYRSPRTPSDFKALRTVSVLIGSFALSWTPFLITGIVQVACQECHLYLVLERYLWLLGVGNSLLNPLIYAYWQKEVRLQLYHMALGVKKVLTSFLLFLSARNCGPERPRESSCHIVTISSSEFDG
Experiment: AlphaScreen cAMP assay in MIN6 cells stably transfected with human GPR119
Assay type: cell-based
Settings: Min-6/hGPR119 cells, 45 min at room temperature
Summary of the method: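 cAMP accumulation quantified by AlphaScreen after 45 min compound stimulation at about 20 °C. Stimulation buffer: pH 7.4 HEPES saline with 0.5 mM IBMX, 0.1% BSA, 1% DMSO final. Cells: MIN6 stably transfected with human GPR119, 10000/well, cultured 24 h beforehand.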

Row | Structure (SMILES) | pEC50
1 | CC(C)(C)OC(=O)N1CCC(N(C(=O)c2cc(-c3cccc([N+](=O)[O-])c3)[nH]n2)C2CC2)CC1 [Example 64, 4-{Cyclopropyl-[5-(3-nitro-phenyl)-1H-pyrazole-3-carbonyl]-amino}-piperidine-1-carboxylic acid tert-butyl ester] | 6.03
2 | CC(C)(C)OC(=O)N1CCC(N(C(=O)c2cc(-c3ccc([N+](=O)[O-])cc3)[nH]n2)C2CC2)CC1 [Example 65, 4-{Cyclopropyl-[5-(4-nitro-phenyl)-1H-pyrazole-3-carbonyl]-amino}-piperidine-1-carboxylic acid tert-butyl ester] | 5.93
3 | CC(C)(C)OC(=O)N1CCC(N(C(=O)c2ncc(-c3ccc(C#N)c(F)c3)cn2)C2CC2)CC1 [Example 66, 4-{[5-(4-Cyano-3-fluoro-phenyl)-pyrimidine-2-carbonyl]-cyclopropyl-amino}-piperidine-1-carboxylic acid tert-butyl ester] | 6.20
4 | CC(C)(C)OC(=O)N1CCC(N(C(=O)c2ncc(-c3ccc(CC#N)cc3)cn2)C2CC2)CC1 [Example 67] | 6.66
5 | CC(C)(C)OC(=O)N1CCC(N(C(=O)c2ncc(-c3ccc(S(C)(=O)=O)cc3)cn2)C2CC2)CC1 [Example 68, 4-{Cyclopropyl-[5-(4-methanesulfonyl-phenyl)-pyrimidine-2-carbonyl]-amino}-piperidine-1-carboxylic acid tert-butyl ester] | 6.26
6 | CC(C)(C)OC(=O)N1CCC(N(C(=O)c2ncc(-c3ccc(C#N)nc3)cn2)C2CC2)CC1 [Example 69, 4-{[5-(6-Cyano-pyridin-3-yl)-pyrimidine-2-carbonyl]-cyclopropyl-amino}-piperidine-1-carboxylic acid tert-butyl ester] | 5.95
7 | CC(C)(C)OC(=O)N1CCC(N(C(=O)c2cnc(-c3cccnc3)nc2)C2CC2)CC1 [Example 70, 4-[Cyclopropyl-(2-pyridin-3-yl-pyrimidine-5-carbonyl)-amino]-piperidine-1-carboxylic acid tert-butyl ester] | 6.31
8 | COc1ccccc1-c1ncc(C(=O)N(C2CC2)C2CCN(C(=O)OC(C)(C)C)CC2)cn1 [Example 73, 4-{Cyclopropyl-[2-(2-methoxy-phenyl)-pyrimidine-5-carbonyl]-amino}-piperidine-1-carboxylic acid tert-butyl ester] | 5.78
9 | COc1cccc(-c2ncc(C(=O)N(C3CC3)C3CCN(C(=O)OC(C)(C)C)CC3)cn2)c1 [Example 74, 4-{Cyclopropyl-[2-(3-methoxy-phenyl)-pyrimidine-5-carbonyl]-amino}-piperidine-1-carboxylic acid tert-butyl ester] | 5.99
10 | CC(C)(C)OC(=O)N1CCC(N(C(=O)c2cnc(-c3ccc(NS(C)(=O)=O)cc3)nc2)C2CC2)CC1 [Example 79, 4-{Cyclopropyl-[2-(4-methanesulfonylamino-phenyl)-pyrimidine-5-carbonyl]-amino}-piperidine-1-carboxylic acid tert-butyl ester] | 6.68
11 | CC(=O)NCc1ccc(-c2ncc(C(=O)N(C3CC3)C3CCN(C(=O)OC(C)(C)C)CC3)cn2)cc1 [Example 87, 4-({2-[4-(Acetylamino-methyl)-phenyl]-pyrimidine-5-carbonyl}-cyclopropyl-amino)-piperidine-1-carboxylic acid tert-buyl ester] | 6.35
12 | CC(C)(C)OC(=O)N1CCC(N(C(=O)c2cnc(-c3ccc(S(N)(=O)=O)cc3)nc2)C2CC2)CC1 [Example 88, 4-{Cyclopropyl-[2-(4-sulfamoyl-phenyl)-pyrimidine-5-carbonyl]-amino}-piperidine-1-carboxylic acid tert-butyl ester] | 6.46
13 | Cc1ccc(-c2ncc(C(=O)N(C3CC3)C3CCN(C(=O)OC(C)(C)C)CC3)cn2)cn1 [Example 89, 4-{Cyclopropyl-[2-(6-methyl-pyridin-3-yl)-pyrimidine-5-carbonyl]-amino}-piperidine-1-carboxylic acid tert-butyl ester] | 6.62

Next, values leading:

Row | pEC50 | Structure (SMILES)
14 | 7.38 | CC(C)(C)OC(=O)N1CCC(N(C(=O)c2cnc(-c3ccncc3)nc2)C2CC2)CC1 [Example 63, 4-[Cyclopropyl-(2-pyridin-4-yl-pyrimidine-5-carbonyl)-amino]-piperidine-1-carboxylic acid tert-butyl ester]
15 | 7.05 | CC(C)(C)OC(=O)N1CCC(N(C(=O)c2cnc(-c3cncnc3)nc2)C2CC2)CC1 [Example 71, 4-[([2,5′]Bipyrimidinyl-5-carbonyl)-cyclopropyl-amino]-piperidine-1-carboxylic acid tert-butyl ester]
16 | 7.85 | CC(C)(C)OC(=O)N1CCC(N(C(=O)c2cnc(-c3ccc(C#N)cc3)nc2)C2CC2)CC1 [Example 72, 4-{[2-(4-Cyano-phenyl)-pyrimidine-5-carbonyl]-cyclopropyl-amino}-piperidine-1-carboxylic acid tert-butyl ester]
17 | 6.77 | CC(C)(C)OC(=O)N1CCC(N(C(=O)c2cnc(-c3cccc(C#N)c3)nc2)C2CC2)CC1 [Example 75, 4-{[2-(3-Cyano-phenyl)-pyrimidine-5-carbonyl]-cyclopropyl-amino}-piperidine-1-carboxylic acid tert-butyl ester]
18 | 7.15 | CCOc1ccc(-c2ncc(C(=O)N(C3CC3)C3CCN(C(=O)OC(C)(C)C)CC3)cn2)cc1 [Example 76, 4-{Cyclopropyl-[2-(4-ethoxy-phenyl)-pyrimidine-5-carbonyl]-amino}-piperidine-1-carboxylic acid tert-butyl ester]
19 | 7.26 | CC(C)(C)OC(=O)N1CCC(N(C(=O)c2cnc(-c3ccc(OC(F)(F)F)cc3)nc2)C2CC2)CC1 [Example 77, 4-{Cyclopropyl-[2-(4-trifluoromethoxy-phenyl)-pyrimidine-5-carbonyl]-amino}-piperidine-1-carboxylic acid tert-butyl ester]
20 | 8.05 | CC(C)(C)OC(=O)N1CCC(N(C(=O)c2cnc(-c3ccc(CC#N)cc3)nc2)C2CC2)CC1 [Example 78, 4-{[2-(4-Cyanomethyl-phenyl)-pyrimidine-5-carbonyl]-cyclopropyl-amino}-piperidine-1-carboxylic acid tert-butyl ester]
21 | 7.12 | CC(C)(C)OC(=O)N1CCC(N(C(=O)c2cnc(-c3ccc(S(C)(=O)=O)cc3)nc2)C2CC2)CC1 [Example 80, 4-{Cyclopropyl-[2-(4-methanesulfonyl-phenyl)-pyrimidine-5-carbonyl]-amino}-piperidine-1-carboxylic acid tert-butyl ester]
22 | 7.01 | CC(C)(C)OC(=O)N1CCC(N(C(=O)c2cnc(-c3ccc(CO)cc3)nc2)C2CC2)CC1 [Example 81, 4-{Cyclopropyl-[2-(4-hydroxymethyl-phenyl)-pyrimidine-5-carbonyl]-amino}-piperidine-1-carboxylic acid tert-butyl ester]
23 | 7.19 | COc1ncc(-c2ncc(C(=O)N(C3CC3)C3CCN(C(=O)OC(C)(C)C)CC3)cn2)cn1 [Example 82, 4-[Cyclopropyl-(2′-methoxy-[2,5′]bipyrimidinyl-5-carbonyl)-amino]-piperidine-1-carboxylic acid tert-butyl ester]
24 | 7.82 | CC(C)(C)OC(=O)N1CCC(N(C(=O)c2cnc(-c3ccc(C#N)nc3)nc2)C2CC2)CC1 [Example 83, 4-{[2-(6-Cyano-pyridin-3-yl)-pyrimidine-5-carbonyl]-cyclopropyl-amino}-piperidine-1-carboxylic acid tert-butyl ester]
25 | 6.85 | CC(C)(C)OC(=O)N1CCC(N(C(=O)c2cnc(-c3ccc(N4CCOCC4)cc3)nc2)C2CC2)CC1 [Example 84, 4-{Cyclopropyl-[2-(4-morpholin-4-yl-phenyl)-pyrimidine-5-carbonyl]-amino}-piperidine-1-carboxylic acid tert-butyl ester]
26 | 7.34 | COc1cc(-c2ncc(C(=O)N(C3CC3)C3CCN(C(=O)OC(C)(C)C)CC3)cn2)ccn1 [Example 85, 4-{Cyclopropyl-[2-(2-methoxy-pyridin-4-yl)-pyrimidine-5-carbonyl]-amino}-piperidine-1-carboxylic acid tert-butyl ester]
27 | 6.77 | CCNC(=O)c1ccc(-c2ncc(C(=O)N(C3CC3)C3CCN(C(=O)OC(C)(C)C)CC3)cn2)cc1 [Example 86, 4-{Cyclopropyl-[2-(4-ethylcarbamoyl-phenyl)-pyrimidine-5-carbonyl]-amino}-piperidine-1-carboxylic acid tert-butyl ester]
28 | 8.10 | CC(C)(C)OC(=O)N1CCC(N(C(=O)c2cnc(-c3ccc(C#N)c(F)c3)nc2)C2CC2)CC1 [Example 90, 4-{[2-(4-Cyano-3-fluoro-phenyl)-pyrimidine-5-carbonyl]-cyclopropyl-amino}-piperidine-1-carboxylic acid tert-butyl ester]
29 | 6.82 | CNS(=O)(=O)c1ccc(-c2ncc(C(=O)N(C3CC3)C3CCN(C(=O)OC(C)(C)C)CC3)cn2)cc1 [Example 92, 4-{Cyclopropyl-[2-(4-methanesulfamoyl-phenyl)-pyrimidine-5-carbonyl]-amino}-piperidine-1-carboxylic acid tert-butyl ester]
30 | 6.68 | CN(C)c1ccc(-c2ncc(C(=O)N(C3CC3)C3CCN(C(=O)OC(C)(C)C)CC3)cn2)cn1 [Example 93, 4-{Cyclopropyl-[2-(6-dimethylamino-pyridin-3-yl)-pyrimidine-5-carbonyl]-amino}-piperidine-1-carboxylic acid tert-butyl ester]
